# Measured values reported in PubChem BioAssay AID1918946 (Molecular Pharmacology Branch, DTP, NCI, 2023).
# Tested on: 885512-296-R-J2-PDC complex spheroid viability
# Experiment: Anticancer human tumor 885512-296-R-J2-PDC patient-derived breast carcinoma cell line growth inhibition
# Conditions: for IC50: curve of first compound; for viability, T/C: stronger effect = lower value
# Procedure, shortened: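 Drug combinations with the LSD1 inhibitor iadademstat tested on tumor cells co-cultured as spheroids with endothelial cells and mesenchymal stem cells. Concentrations descended in half-log increments from clinical Cmax or 10 microM.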
# [1] = second compound 0.1 µM, first compound 0.000949 µM
# [2] = second compound 0.1 µM, first compound 0.003 µM
# [3] = second compound 0.1 µM, first compound 0.00949 µM
# [4] = second compound 0.1 µM, first compound 0.03 µM
# [5] = second compound 0.1 µM, first compound 0.0949 µM
# [6] = second compound 0.1 µM, first compound 0.3 µM
# [7] = second compound 0.316 µM, first compound 0.000949 µM
# [8] = second compound 0.316 µM, first compound 0.003 µM
# [9] = second compound 0.316 µM, first compound 0.00949 µM
# [10] = second compound 0.316 µM, first compound 0.03 µM
# [11] = second compound 0.316 µM, first compound 0.0949 µM
# [12] = second compound 0.316 µM, first compound 0.3 µM
# [13] = second compound 1 µM, first compound 0.000949 µM
# [14] = second compound 1 µM, first compound 0.003 µM
# [15] = second compound 1 µM, first compound 0.00949 µM
# [16] = second compound 1 µM, first compound 0.03 µM
# [17] = second compound 1 µM, first compound 0.0949 µM
# [18] = second compound 1 µM, first compound 0.3 µM
# [19] = second compound 3.16 µM, first compound 0.000949 µM
# [20] = second compound 3.16 µM, first compound 0.003 µM
# [21] = second compound 3.16 µM, first compound 0.00949 µM
# [22] = second compound 3.16 µM, first compound 0.03 µM
# [23] = second compound 3.16 µM, first compound 0.0949 µM
# [24] = second compound 3.16 µM, first compound 0.3 µM
# [25] = second compound 10 µM, first compound 0.000949 µM
# [26] = second compound 10 µM, first compound 0.003 µM
# [27] = second compound 10 µM, first compound 0.00949 µM
# [28] = second compound 10 µM, first compound 0.03 µM
# [29] = second compound 10 µM, first compound 0.0949 µM
# [30] = second compound 10 µM, first compound 0.3 µM
# 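Note: spheroids exposed to agents for 7 days before viability read.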
compound,measurement,setting,value
CC[C@@]1(O)C(=O)OCc2c1cc1n(c2=O)Cc2cc3c(CN(C)C)c(O)ccc3nc2-1 + NC1CCC(NC2CC2c2ccccc2)CC1,IC50,second compound 0.1 µM,0.517 nM
same,IC50,second compound 0.316 µM,0.571 nM
same,IC50,second compound 1 µM,0.48 nM
same,IC50,second compound 3.16 µM,0.497 nM
same,IC50,second compound 10 µM,0.398 nM
same,"viability, T/C","second compound 0.1 µM, first compound 0.000316 µM",74%
same,"viability, T/C","second compound 0.1 µM, first compound 0.001 µM",17.8%
same,"viability, T/C","second compound 0.1 µM, first compound 0.00316 µM",9.2%
same,"viability, T/C","second compound 0.1 µM, first compound 0.01 µM",3.46%
same,"viability, T/C","second compound 0.1 µM, first compound 0.0316 µM",7.41%
same,"viability, T/C","second compound 0.1 µM, first compound 0.1 µM",12.3%
same,"viability, T/C","second compound 0.316 µM, first compound 0.000316 µM",81.8%
same,"viability, T/C","second compound 0.316 µM, first compound 0.001 µM",19.7%
same,"viability, T/C","second compound 0.316 µM, first compound 0.00316 µM",7.03%
same,"viability, T/C","second compound 0.316 µM, first compound 0.01 µM",3.42%
same,"viability, T/C","second compound 0.316 µM, first compound 0.0316 µM",5.16%
same,"viability, T/C","second compound 0.316 µM, first compound 0.1 µM",7.04%
same,"viability, T/C","second compound 1 µM, first compound 0.000316 µM",66.9%
same,"viability, T/C","second compound 1 µM, first compound 0.001 µM",20.4%
same,"viability, T/C","second compound 1 µM, first compound 0.00316 µM",6.72%
same,"viability, T/C","second compound 1 µM, first compound 0.01 µM",5.59%
same,"viability, T/C","second compound 1 µM, first compound 0.0316 µM",3.12%
same,"viability, T/C","second compound 1 µM, first compound 0.1 µM",4.36%
same,"viability, T/C","second compound 3.16 µM, first compound 0.000316 µM",71.7%
same,"viability, T/C","second compound 3.16 µM, first compound 0.001 µM",16.6%
same,"viability, T/C","second compound 3.16 µM, first compound 0.00316 µM",5.15%
same,"viability, T/C","second compound 3.16 µM, first compound 0.01 µM",6.21%
same,"viability, T/C","second compound 3.16 µM, first compound 0.0316 µM",2.51%
same,"viability, T/C","second compound 3.16 µM, first compound 0.1 µM",2.21%
same,"viability, T/C","second compound 10 µM, first compound 0.000316 µM",59.4%
same,"viability, T/C","second compound 10 µM, first compound 0.001 µM",13.6%
same,"viability, T/C","second compound 10 µM, first compound 0.00316 µM",5.78%
same,"viability, T/C","second compound 10 µM, first compound 0.01 µM",3.89%
same,"viability, T/C","second compound 10 µM, first compound 0.0316 µM",2.72%
same,"viability, T/C","second compound 10 µM, first compound 0.1 µM",1.8%
CCc1c2c(nc3ccc(O)cc13)-c1cc3c(c(=O)n1C2)COC(=O)[C@]3(O)CC + NC1CCC(NC2CC2c2ccccc2)CC1,IC50,second compound 0.1 µM,< 0.949 nM
same,IC50,second compound 0.316 µM,< 0.949 nM
same,IC50,second compound 1 µM,< 0.949 nM
same,IC50,second compound 3.16 µM,< 0.949 nM
same,IC50,second compound 10 µM,< 0.949 nM
same,"viability, T/C",[1],5.05%
same,"viability, T/C",[2],2.28%
same,"viability, T/C",[3],7.01%
same,"viability, T/C",[4],6.9%
same,"viability, T/C",[5],6.49%
same,"viability, T/C",[6],3.96%
same,"viability, T/C",[7],2.42%
same,"viability, T/C",[8],4.76%
same,"viability, T/C",[9],4.46%
same,"viability, T/C",[10],6.46%
same,"viability, T/C",[11],6.66%
same,"viability, T/C",[12],4.85%
same,"viability, T/C",[13],4.94%
same,"viability, T/C",[14],2.3%
same,"viability, T/C",[15],1.74%
same,"viability, T/C",[16],1.31%
same,"viability, T/C",[17],1.26%
same,"viability, T/C",[18],3.93%
same,"viability, T/C",[19],1.98%
same,"viability, T/C",[20],2.41%
same,"viability, T/C",[21],1.65%
same,"viability, T/C",[22],4.17%
same,"viability, T/C",[23],1.31%
same,"viability, T/C",[24],6.19%
same,"viability, T/C",[25],2.47%
same,"viability, T/C",[26],1.92%
same,"viability, T/C",[27],1.39%
same,"viability, T/C",[28],3.6%
same,"viability, T/C",[29],3.36%
same,"viability, T/C",[30],1.14%
COc1cc(C2c3cc4c(cc3C(OC3OC5COC(C)OC5C(O)C3O)C3COC(=O)C23)OCO4)cc(OC)c1O (stereo not given) + NC1CCC(NC2CC2c2ccccc2)CC1,IC50,second compound 0.1 µM,67.8 nM
same,IC50,second compound 0.316 µM,60.8 nM
same,IC50,second compound 1 µM,66.8 nM
same,IC50,second compound 3.16 µM,77.6 nM
same,IC50,second compound 10 µM,52.8 nM
same,"viability, T/C",[3],118%
same,"viability, T/C",[4],95.8%
same,"viability, T/C",[5],31.2%
same,"viability, T/C",[6],11.3%
same,"viability, T/C","second compound 0.1 µM, first compound 0.949 µM",10.2%
same,"viability, T/C","second compound 0.1 µM, first compound 3 µM",11.3%
same,"viability, T/C",[9],108%
same,"viability, T/C",[10],90.7%
same,"viability, T/C",[11],24.3%
same,"viability, T/C",[12],11.8%
same,"viability, T/C","second compound 0.316 µM, first compound 0.949 µM",9.27%
same,"viability, T/C","second compound 0.316 µM, first compound 3 µM",8.79%
same,"viability, T/C",[15],104%
same,"viability, T/C",[16],86.4%
same,"viability, T/C",[17],33.4%
same,"viability, T/C",[18],13%
same,"viability, T/C","second compound 1 µM, first compound 0.949 µM",6.51%
same,"viability, T/C","second compound 1 µM, first compound 3 µM",4.74%
same,"viability, T/C",[21],98.9%
same,"viability, T/C",[22],105%
same,"viability, T/C",[23],39%
same,"viability, T/C",[24],10.7%
same,"viability, T/C","second compound 3.16 µM, first compound 0.949 µM",6.97%
same,"viability, T/C","second compound 3.16 µM, first compound 3 µM",9.62%
same,"viability, T/C",[27],90.8%
same,"viability, T/C",[28],64.6%
same,"viability, T/C",[29],35%
same,"viability, T/C",[30],14.2%
same,"viability, T/C","second compound 10 µM, first compound 0.949 µM",5.81%
same,"viability, T/C","second compound 10 µM, first compound 3 µM",4.68%
Nc1ccn(C2OC(CO)C(O)C2(F)F)c(=O)n1 (stereo not given) + NC1CCC(NC2CC2c2ccccc2)CC1,IC50,second compound 0.1 µM,< 0.949 nM
same,IC50,second compound 0.316 µM,< 0.949 nM
same,IC50,second compound 1 µM,< 0.949 nM
same,IC50,second compound 3.16 µM,< 0.949 nM
same,IC50,second compound 10 µM,< 0.949 nM
same,"viability, T/C",[1],2.54%
same,"viability, T/C",[2],9.95%
same,"viability, T/C",[3],3.52%
same,"viability, T/C",[4],9.59%
same,"viability, T/C",[5],5.54%
same,"viability, T/C",[6],10.4%
same,"viability, T/C",[7],2.51%
same,"viability, T/C",[8],5.66%
same,"viability, T/C",[9],5.62%
same,"viability, T/C",[10],2.98%
same,"viability, T/C",[11],10%
same,"viability, T/C",[12],7.9%
same,"viability, T/C",[13],10.2%
same,"viability, T/C",[14],2.49%
same,"viability, T/C",[15],2.65%
same,"viability, T/C",[16],2.66%
same,"viability, T/C",[17],5.52%
same,"viability, T/C",[18],10.6%
same,"viability, T/C",[19],2.36%
same,"viability, T/C",[20],6.19%
same,"viability, T/C",[21],2.7%
same,"viability, T/C",[22],3.2%
same,"viability, T/C",[23],2.6%
same,"viability, T/C",[24],5.18%
same,"viability, T/C",[25],4.44%
same,"viability, T/C",[26],4.02%
same,"viability, T/C",[27],3.03%
same,"viability, T/C",[28],2.62%
same,"viability, T/C",[29],4.97%
same,"viability, T/C",[30],2.63%
